Experimental findings from patent US6653344B2, “Pharmaceutical preparations containing a dibenzocyclooctane lignan derivative for treatment of neurodegenerative disease” (Elcom Bio Technology Co., Ltd., priority 2000, dated 2003) are described below.

The structures appear in SMILES notation. Entries after “also recorded” stand apart in the source; their conditions may differ.

Common to all, as to type: cell-based
Test [1] relates to glutamate-damaged primary cultured rat cortical cells. In words: Neuroprotection against glutamate-induced neurotoxicity, cell viability by MTT assay. On the set-up: Viability (%) Pre-treatment / Viability (%) Post-treatment: unit of the concentration uncertain. To be noted: for Viability: 1 hr before 100 M glutamate, then 24 hr, control 100, glutamate-treated 0; for Viability (%) Pre-treatment: compound 1 µM for 1 hr before 100 µM glutamate (15 min), then 24 hr in DMEM in the absence of compound; for Viability (%) Post-treatment: glutamate 15 min, washed, 24 hr in the presence of compound 1 µM; for neuroprotective activity, post-treatment (in words): post-treatment with lignan after glutamate; for neuroprotective activity, pre-treatment (in words): pre-treatment with lignan before glutamate; for neuroprotective activity against glutamate-induced neurotoxicity (in words): primary cultures of rat cortical cells, L-glutamate. The procedure:
(§1) Primary cultures of mixed cortical cells containing both neuron and glia were prepared from fetal rats as described previously (Kim Y C, Kim S R, Markelonis G J and Oh T H (1998) Ginsenosides Rb1 and Rg3 protect cultured rat cortical cells from glutamate-induced neurodegeneration. J. Neurosci. Res. 53: 426-432).
(§2) The cortical cells were plated onto collagen-coated dishes at a density of 1×10^6 cells/ml. The cultured cells were grown in DMEM supplemented with 10% heat-inactivated fetal calf serum, 1 mM sodium pyruvate, 100 IU/ml pecicillin and 100 μg/ml streptomycin at 37° C. in a humidified atmosphere of 95% air/5% CO2. cultures were allowed to mature for 2 weeks before being used for experiments.
The lignan compounds to be investigated for having neuroprotective activity or not were dissolved in DMSO(within final culture concentration, 0.1%) and diluted with distilled water and by passing the solution through Milliporemembrane (0.22 μm, Millex-GV, USA) to make sterile state. The solution was cultured, by differentiating the concentration and dosed to neuron cells.
Cortical cells directly isolated from […] fetal were cultured for 14 days. The samples to be tested were treated at different concentrations to cultured cells. After one hour, neurotoxicity was induced by treating 100 μM of glutamate. After 24 hours, the survival cell rate were measured by MTT assay to determine neuroprotective activity of the samples.
(§3) To culture broth of the cortical cells during being cultured, MTT(5 mg/ml) was added by 10% of the culture broth. The broth was cultured for more 3 hours. The formed formazan was dissolved by DMSO and was assayed absorption at 540 nm ((Mosmann T (1983) Rapid colorimetric assay for cellular growth and survival: Application to proliferation and cytotoxicity assays. J. Immuno. Methods 65: 55-61)
Deoxychizandrin, gomisin N, schizandrin and wuweizisu C, the important dibenzocyclooctane lignans of Schizandra fruit were evaluated by assessing the viability of cultured cortical neurons after treatment with the neurotoxicant, glutamate. […] After cortical cells were cultured for 14 days, test compounds were dosed at different concentrations and after 1 hour neurotoxicity was induced by 100 μM glutamate. After culturing for 24 hours, the neuroprotective activity was measured. The neuroprotective activity of the compounds were measured by MTT assay for assaying the activity of succinate dehydrogenase. […] And the content of formazan is decreased, too. By using this phenomena, cell survival rate can be measured.
We investigated the protective mechanisms of deoxyschizandrin, gomisin N and wuweizisu C in an attempt to determine at which stage these lignans protected neurons from glutamate-induced toxicity. Cultures were pretreated with the lignans for […] exposure to glutamate(pre-treatment). In addition, some cultures were exposed to glutamate in DMEM for 24 hours in the […] of lignans (post-treatment).
Rat Cortical cultures were treated with compounds for 1 hr before exposure to 100 M glutamate and then maintained for 24 hr. Cell viability was measured by the MTT assay. Optical density (OD) of the control and glutamate-treated were 1.18±0.09 and 0.75±0.07, respectively. Viability was calculated as 100×(OD of glutamate+compound-treated−OD of glutamate-treated)/(OD of control−OD of glutamate-treated). Values given represent the mean SD (n=3).
Rat cortical cultures were treated with compounds at the concentration of 1 M for 1 hr before exposure to 100 M glutamate (15 min) and then maintained in DMEM for 24 hr in the absence of compound (Pre-treatment). Some cortical cultures were exposed to glutamate for 15 min, washed and maintained in DMEN for 24 hr in the presence of compund (Posttreatment). Cell viability was measured by the MTT assay. Optical density (OD) of the control and glutamate-treated were 1.18±0.09 and 0.75±0.07, respectively. Viability was calculated as the same as Table 1. Values given represent the mean SD (n=3). […]
Background: Tetrazolium assays rely on reduction of a dye to a coloured formazan, in cell work by metabolically active cells.

Test [2] has as its system GSH-px activity in glutamate-injured primary cultured rat cortical cells. As to the kind of experiment: Measurement of glutathione peroxidase activity (GSH-px). To be noted: 24 hr; for GSH-px: compound 1 µM for 1 hr before 100 µM glutamate, control 18.7, glutamate-treated 9.2; for Protection (GSH-px activity): compound 1 M (1 uM) for 1 hr before 100 M glutamate. As for the experimental part:
Cells were collected by adding 0.1M potassium phosphate buffer (pH 7.4) to culture-broth-removed remainings from first cultured cortical cells. The collected cells were treated by supersonic wave for 20 seconds and were centrifuged at 4° C. with 3,000 g for 20 minutes to obtain the supernatant.
1 ml solution in test tube comprising 100 mM potassium phosphate buffer (pH 7.4), 1 mM reduced glutathione (GSH), 0.2 mM NADPH, 0.5 mM H2O2 and 1.5 units/ml of GSSG-reductase (GSSG-r) was prepared and 10 μl of cell supernatant was added and reacted. The loss of adsoption at 340 nm was assayed and the activity of GSH-px was measured.
In case glutamate is treated to first cultured cortical cells of mice, formation of NO is increased. […] When schizandrin is treated at the 1 μM concentration, it decreased NO content increased by glutamate. […] When deoxyschizandrin, gomisin N and wuweizisu C are treated at 1 uM concentration to first cultured cortical cells toxicity-induced by glutamate, those maintained about 50% of normal state activity of GSH-px and glutathione decreased by glutamate and have protective activity on the activity of antioxidant enzymes.
Rat cortical cultures were treated with compounds at the concentration of 1 M for 1 hr before exposure to 100 M glutamate and then maintained for 24 hr. Values given represent the mean SD (n=3).

In test [3] the test system is KA-insulted primary cultured rat cortical cells. In words: Neuroprotection against KA-induced toxicity, cell viability by MTT assay. To be noted: for Viability (%) KA-insulted: compound 1 µM for 1 hr, then 50 µM KA, 24 hr. As for the experimental part:
as §1, §2, §3
Glutamate receiptor is divided into NMDA receiptor which is activated by NMDA and non-NMDA receiptor which is activated by alpha-amino-3-hydroxy-5-methyl-4-isoxazole and kainic acid (KA). To first cultured cortical cells, the above compounds were each treated. The neuro-protective activities of the compounds were measured, after toxicities were induced by NMDA, the NMDA receiptor agonist, or KA, the non-NMDA receiptor agonist.
Rat cortical cultures were treated with compounds at the concentration of 1 M for 1 hr. The cultures were then exposed to 50 µM NMDA or 50 µM KA and were maintained for an additional 24 hr. […]. Cell viability was measured by the MTT assay. Optical density of control, NMDA- and KA treated were 1.20±0.10, 0.77±0.05 and 0.85±0.08, respectively. Viability was calculated as the same as Table 1. Values given represent the mean SD (n=3).

Turning to `COc1cc2c(c(OC)c1OC)-c1c(cc(OC)c(OC)c1OC)C[C@H](C)[C@H](C)C2` [Deoxyschizandrin, deoxyschizandrin], the Viability in test [1] (compound 0.1 μM) is listed as 11.6 ± 5.1%. Also, in test [1], the “Viability (%) Pre-treatment” value was 20.1 ± 3.1%; the “Viability (%) Post-treatment” value amounted to 45.9 ± 5.5 %; the “neuroprotective activity, post-treatment (in words)” value is “significant neuroprotective activity”; the “neuroprotective activity, pre-treatment (in words)” value is recorded as “not pre-treated”. Besides, in test [1], the “neuroprotective activity against glutamate-induced neurotoxicity (in words)” value is reported as “exhibited neuroprotective activities; also recorded: significantly have protective activity”. The Viability in test [1] (compound 1.0 μM, 1 µM) is 46.2 ± 6.3 %. Moreover, in test [1] (compound 1.0 μM, listed as deoxyschzandrin, 1 µM), the Viability is listed as 46.2%. Besides, the Viability in test [1] (compound 5.0 μM) was 45.6 ± 3.1 %. Moreover, in test [2], the GSH-px is on record as 15.3 ± 3.0 μmol NADPH consumed/min/mg pro and the “Protection (GSH-px activity)” value was 62.1%. Also, the “Protection (GSH-px activity)” value in test [2] (listed as deoxyschizandrin) is on record as “about 50%”. In addition, in test [3], the “neuroprotective activity against toxicity induced by KA (in words)” value is “selectively neuroprotective activity” and the “Viability (%) KA-insulted” value was determined as 38.2 ± 4.2 %.
With `COc1cc2c(c(OC)c1OC)-c1c(cc3c(c1OC)OCO3)C[C@H](C)[C@H](C)C2` [Gomisin N, gomisin N], the Viability in test [1] (compound 0.1 μM) worked out at 25.2 ± 4.4%. Further, in test [1], the “Viability (%) Pre-treatment” value amounted to 45.5 ± 9.8 %; the “Viability (%) Post-treatment” value is 39.6 ± 6.2 %; the “neuroprotective activity, post-treatment (in words)” value was “maintained its activity”; the “neuroprotective activity, pre-treatment (in words)” value was “maintained its activity”. The “neuroprotective activity against glutamate-induced neurotoxicity (in words)” value in test [1] is “exhibited neuroprotective activities; also recorded: significantly have protective activity”. Further, the Viability in test [1] (compound 1.0 μM, 1 µM) was determined as 51.3 ± 8.3 %. The Viability in test [1] (compound 1.0 μM, listed as gomisin N, 1 µM) is on record as 51.3%. In addition, the Viability in test [1] (compound 5.0 μM) was found to be 49.2 ± 9.5 %. Also, in test [2], the GSH-px is reported as 14.6 ± 4.1 μmol NADPH consumed/min/mg pro and the “Protection (GSH-px activity)” value is 56.8%. Besides, the “Protection (GSH-px activity)” value in test [2] (listed as gomisin N) is reported as “about 50%”. Also, the “Viability (%) KA-insulted” value in test [3] amounted to 25.5 ± 4.5%.
As to `COc1c2c(cc3c1-c1c(cc4c(c1OC)OCO4)C[C@H](C)[C@H](C)C3)OCO2` [Wuweizisu C, wuweizisu C], the Viability in test [1] (compound 0.1 μM) is recorded as 30.2 ± 6.3 %. For the same compound, in test [1], the “Viability (%) Pre-treatment” value came to 59.6 ± 5.1 %; the “Viability (%) Post-treatment” value is 19.2 ± 7.8%; the “neuroprotective activity, post-treatment (in words)” value was “not post-treatment”; the “neuroprotective activity, pre-treatment (in words)” value is “neuroprotective”. Besides, the “neuroprotective activity against glutamate-induced neurotoxicity (in words)” value in test [1] is “exhibited neuroprotective activities; also recorded: significantly have protective activity”. Besides, in test [1] (compound 1.0 μM, 1 µM), the Viability is recorded as 63.9 ± 5.9 %. For the same compound, the Viability in test [1] (compound 1.0 μM, listed as wuwiewisu C, 1 µM) was determined as 63.9%. Further, the Viability in test [1] (compound 5.0 μM) amounted to 60.9 ± 9.6 %. Also, in test [2], the GSH-px was 13.9 ± 3.9 μmol NADPH consumed/min/mg pro and the “Protection (GSH-px activity)” value is on record as 49.5%. Also, the “Protection (GSH-px activity)” value in test [2] (listed as wuweizisu C) is “about 50%”. In test [3], the “Viability (%) KA-insulted” value stood at 15.0 ± 3.9%.
